Experimental data from patent US20190134005A1 (BioMarin Pharmaceutical Inc., priority 2016, published 2019).
Like-named read-outs stand apart in the source and are kept apart here.

Target: T1, human CGT (Homo sapiens, UniProt Q16880)
T1 sequence (Q16880 21-541): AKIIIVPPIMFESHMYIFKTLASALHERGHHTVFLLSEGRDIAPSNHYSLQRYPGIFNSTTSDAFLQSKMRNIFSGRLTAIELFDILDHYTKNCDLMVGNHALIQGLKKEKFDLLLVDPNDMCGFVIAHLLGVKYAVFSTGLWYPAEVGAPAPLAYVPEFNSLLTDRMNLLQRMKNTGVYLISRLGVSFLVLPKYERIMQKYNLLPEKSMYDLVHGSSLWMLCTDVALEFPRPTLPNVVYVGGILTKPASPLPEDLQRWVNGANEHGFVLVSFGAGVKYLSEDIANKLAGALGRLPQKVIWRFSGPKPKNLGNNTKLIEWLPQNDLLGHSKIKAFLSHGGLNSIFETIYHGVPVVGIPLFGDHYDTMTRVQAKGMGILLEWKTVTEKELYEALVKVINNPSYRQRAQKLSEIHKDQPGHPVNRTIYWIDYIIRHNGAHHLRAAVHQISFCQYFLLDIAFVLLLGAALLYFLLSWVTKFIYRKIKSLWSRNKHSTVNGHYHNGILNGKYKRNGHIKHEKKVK
Assay: Assay 1: CGT Enzymatic Assay (RapidFire/MS/MS, 0.01% Tween 80)
Assay type: biochemical
Conditions: Table 1, Compounds of Formula (I) and Formula (II), CGT enzymatic assay, read-out: IC50

[1] = C6-NBD-dihydro-galactosylceramide readout

SMILES	IC50 [µM]	IC50 [1] [µM]
CC[C@H]1N(c2ccc(F)cc2)C(=O)N(c2ccc(F)cc2)C1(O)c1cccc(C#N)c1 (stereo partly drawn) [Compound 123-2, 3-((5R)-5-ethyl-1,3-bis(4-fluorophenyl)-4-hydroxy-2-oxoimidazolidin-4-yl)benzonitrile]	< 1	–
CC1(C(F)(F)F)N(c2ccc(Cl)cc2)C(=O)N(c2ccc(Cl)cc2)C1(O)c1cccc(C#N)c1 (centres unmarked) [Example 177, 3-(1,3-bis(4-chlorophenyl)-4-hydroxy-5-methyl-2-oxo-5-(trifluoromethyl)imidazolidin-4-yl)benzonitrile]	< 1	–
CC1(C)N(c2ccc(C#N)cc2)C(=O)N(c2ccc(Cl)cc2)C1(O)c1cccc(OC(F)(F)F)c1 (centres unmarked) [Example 322, 4-(3-(4-chlorophenyl)-4-hydroxy-5,5-dimethyl-2-oxo-4-(3-(trifluoromethoxy)phenyl)imidazolidin-1-yl)benzonitrile]	–	< 1
O=C1N(c2ccc(Br)cc2)C(=O)C(O)(c2ccco2)N1c1ccc(Br)cc1 (centres unmarked) [Example 198, 1,3-bis(4-bromophenyl)-5-(furan-2-yl)-5-hydroxyimidazolidine-2,4-dione]	> 50	–
N#Cc1ccc(N2CC(O)(c3ccccc3)N(c3ccc(C#N)cc3)C2=O)cc1 (centres unmarked) [Compound 111, 4,4′-(4-hydroxy-2-oxo-4-phenylimidazolidine-1,3-diyl)dibenzonitrile]	> 50	–
CC[C@@H]1N(c2ccc(F)cc2)C(=O)N(c2ccc(F)cc2)C1(O)c1cccc(C(F)(F)F)c1 (single isomer, unassigned) [Compound 139-1]	1 to 10	–
C[C@H]1N(c2ccc(Cl)cc2)C(=O)N(c2ccc(Cl)cc2)C1(O)c1cccc(OC(F)(F)F)c1 (stereo partly drawn) [Compound 129-2, (5R)-1,3-bis(4-chlorophenyl)-4-hydroxy-5-methyl-4-(3-(trifluoromethoxy)phenyl)imidazolidin-2-one]	< 1	–
N#Cc1cccc(C2(O)N(c3ccc(Cl)cc3)C(=O)N(c3ccc(Cl)cc3)[C@]23CCOC3)c1 (stereo partly drawn) [Example 221-1, 3-((5S)-1,3-bis(4-chlorophenyl)-4-hydroxy-2-oxo-7-oxa-1,3-diazaspiro[4.4]nonan-4-yl)benzonitrile]	< 1	–
CC[C@@H]1N(c2ccc(Cl)cc2)C(=O)N(c2ccc(Cl)cc2)C1(O)c1cccc(C)c1 (stereo partly drawn) [Compound 75-1, (5S)-1,3-bis(4-chlorophenyl)-5-ethyl-4-hydroxy-4-(m-tolyl)imidazolidin-2-one]	< 1	–
CCC[C@@H]1N(c2ccc(Cl)cc2)C(=O)N(c2ccc(Cl)cc2)C1(O)c1cccc(OC(F)(F)F)c1 (stereo partly drawn) [Compound 91-1, (5S)-1,3-bis(4-chlorophenyl)-4-hydroxy-5-propyl-4-(3-(trifluoromethoxy)phenyl)imidazolidin-2-one]	< 1	–
CC(C)c1c(-c2cccc(C#N)c2)n(-c2ccc(Br)cc2)c(=O)n1-c1ccc(Br)cc1 [Example 46, 3-(1,3-bis(4-bromophenyl)-5-isopropyl-2-oxo-2,3-dihydro-1H-imidazol-4-yl)benzonitrile]	< 1	–
CCCC[C@H]1N(c2ccc(Cl)cc2)C(=O)N(c2ccc(Cl)cc2)C1(O)c1cccc(C#N)c1 (stereo partly drawn) [Compound 116-2, 3-((5R)-5-butyl-1,3-bis(4-chlorophenyl)-4-hydroxy-2-oxoimidazolidin-4-yl)benzonitrile]	< 1	–
Cc1c(-c2cccc(Br)c2)n(-c2ccc(Cl)cc2)c(=O)n1-c1ccc(Cl)cc1 [Compound 246, 4-(3-bromophenyl)-1,3-bis(4-chlorophenyl)-5-methyl-1,3-dihydro-2H-imidazol-2-one]	< 1	–
O=C1N(c2ccc(Br)cc2)CC(O)(c2ccccn2)N1c1ccc(Br)cc1 (centres unmarked) [Example 9, 1,3-bis(4-bromophenyl)-4-hydroxy-4-(pyridin-2-yl)imidazolidin-2-one]	> 50	–
COC(=O)C1(O)[C@@H](C)N(c2ccc(Br)cc2)C(=O)N1c1ccc(Br)cc1 (single isomer, unassigned) [Compound 84-2]	> 50	–
O=C1N(c2ccc(Cl)cc2)C2(CC2)C(O)(c2cccc(Cl)c2)N1c1ccc(Cl)cc1 (centres unmarked) [Example 228, 7-(3-chlorophenyl)-4,6-bis(4-chlorophenyl)-7-hydroxy-4,6-diazaspiro[24]heptan-5-one]	< 1	–
COc1ccc(N2C(=O)N(c3ccc(OC)cc3)C(O)(c3cccc(OC(F)(F)F)c3)[C@H]2C(C)C)cc1 (stereo partly drawn) [Example 329-2, (5R)-4-hydroxy-5-isopropyl-1,3-bis(4-methoxyphenyl)-4-(3-(trifluoromethoxy)phenyl)imidazolidin-2-one]	–	< 1
COCc1c(-c2cccc(C(F)(F)F)c2)n(-c2ccc(Cl)cc2)c(=O)n1-c1ccc(Cl)cc1 [Example 41, 1,3-bis(4-chlorophenyl)-4-(methoxymethyl)-5-(3-(trifluoromethyl)phenyl)-1,3-dihydro-2H-imidazol-2-one]	< 1	–

SMILES	IC50 [µM]	IC50 [1] [µM]
CCC1N(c2ccc(F)cc2)C(=O)N(c2ccc(F)cc2)C1(O)c1cccc(C(F)(F)F)c1 (centres unmarked) [Compound 139, 5-ethyl-1,3-bis(4-fluorophenyl)-4-hydroxy-4-(3-(trifluoromethyl)phenyl)imidazolidin-2-one]	1 to 10	–
CC(C)c1c(-c2cccc(OC(F)(F)F)c2)n(-c2ccc(Cl)cc2)c(=O)n1-c1ccc(Cl)cc1 [Example 50]	< 1	–
O=C1N(c2ccc(Cl)cc2)C2(CC2)C(O)(c2cccc(C(F)(F)F)c2)N1c1ccc(Cl)cc1 (centres unmarked) [Example 225, 4,6-bis(4-chlorophenyl)-7-hydroxy-7-(3-(trifluoromethyl)phenyl)-4,6-diazaspiro[2.4]heptan-5-one]	< 1	–
O=C1N(c2ccc(Cl)cc2F)C(=O)C(O)(c2ccccc2)N1c1ccc(Cl)cc1F (centres unmarked) [Compound 155, 1,3-bis(4-chloro-2-fluorophenyl)-5-hydroxy-5-phenylimidazolidine-2,4-dione]	> 50	–
O=C1N(c2ccc(Cl)cc2)C(=O)C(O)(c2ccccc2)N1c1ccc(Cl)cc1 (centres unmarked) [Compound 147, 1,3-bis(4-chlorophenyl)-5-hydroxy-5-phenylimidazolidine-2,4-dione]	10 to 50	–
O=C1N(c2ccc(Cl)cc2)CC(O)(c2ccccc2)N1c1ccc(Br)cc1 (centres unmarked) [Example 38, 3-(4-bromophenyl)-1-(4-chlorophenyl)-4-hydroxy-4-phenylimidazolidin-2-one]	10 to 50	–
O=C1N(c2ccc(Cl)cc2)[C@]2(CCOC2)[C@@](O)(c2cccc(OC(F)(F)F)c2)N1c1ccc(Cl)cc1 [Compound 234-2, (4S,5S)-1,3-bis(4-chlorophenyl)-4-hydroxy-4-(3-(trifluoromethoxy)phenyl)-7-oxa-1,3-diazaspiro[4.4]nonan-2-one]	< 1	–
N#Cc1cccc(C2(O)C(C3CCC3)N(c3ccc(Cl)cc3)C(=O)N2c2ccc(Cl)cc2)c1 (centres unmarked) [Example 194, 3-(1,3-bis(4-chlorophenyl)-5-cyclobutyl-4-hydroxy-2-oxoimidazolidin-4-yl)benzonitrile]	< 1	–
O=C1N(c2ccc(Cl)cc2)C2(CCCC2)C(O)(c2cccc(OC(F)(F)F)c2)N1c1ccc(Cl)cc1 (centres unmarked) [Compound 146, 1,3-bis(4-chlorophenyl)-4-hydroxy-4-(3-(trifluoromethoxy)phenyl)-1,3-diazaspiro[4.4]nonan-2-one]	< 1	–
O=C1N(c2ccc(Cl)cc2)[C@@H](C2CCC2)C(O)(c2cccc(OC(F)(F)F)c2)N1c1ccc(Cl)cc1 (stereo partly drawn) [Example 191-1, (5S)-1,3-bis(4-chlorophenyl)-5-cyclobutyl-4-hydroxy-4-(3-(trifluoromethoxy)phenyl)imidazolidin-2-one]	< 1	–
C[C@]1(c2ccccc2)N(c2ccc(Cl)cc2)C(=O)N(c2ccc(Cl)cc2)[C@@]1(O)c1ccccc1 [Compound 121-4, (4R,5R)-1,3-bis(4-chlorophenyl)-4-hydroxy-5-methyl-4,5-diphenylimidazolidin-2-one]	1 to 10	–
O=C1N(c2ccc(Cl)cc2)[C@H](C2CC2)C(O)(c2cccc(OC(F)F)c2)N1c1ccc(Cl)cc1 (stereo partly drawn) [Compound 233-2, (5R)-1,3-bis(4-chlorophenyl)-5-cyclopropyl-4-(3-(difluoromethoxy)phenyl)-4-hydroxyimidazolidin-2-one]	< 1	–
N#Cc1ccc(N2C(=O)N(c3ccc(C#N)cc3)C(O)(c3cccc(OC(F)(F)F)c3)C23COC3)cc1 (centres unmarked) [Compound 275, 4,4′-(8-hydroxy-6-oxo-8-(3-(trifluoromethoxy)phenyl)-2-oxa-5,7-diazaspiro[3.4]octane-5,7-diyl)dibenzonitrile]	–	< 1
COc1cccc([C@]2(C)C(O)N(c3ccc(Br)cc3)C(=O)N2c2ccc(Br)cc2)c1 (single isomer, unassigned) [Compound 126-2]	< 1	–
COC[C@H]1N(c2ccc(Cl)cc2)C(=O)N(c2ccc(Cl)cc2)C1(O)c1cccc(C(F)(F)F)c1 (stereo partly drawn) [Compound 92-2, (5R)-1,3-bis(4-chlorophenyl)-4-hydroxy-5-(methoxymethyl)-4-(3-(trifluoromethyl)phenyl)imidazolidin-2-one]	< 1	–
CCC1N(c2ccc(Cl)cc2)C(=O)N(c2ccc(Cl)cc2)C1(O)c1cccc(OC(F)(F)F)c1 (centres unmarked) [Compound 82, 1,3-bis(4-chlorophenyl)-5-ethyl-4-hydroxy-4-(3-(trifluoromethoxy)phenyl)imidazolidin-2-one]	< 1	–
C#Cc1cccc(C2(O)[C@@H](C)N(c3ccc(Cl)cc3)C(=O)N2c2ccc(Cl)cc2)c1 (stereo partly drawn) [Compound 93-2, (5R)-1,3-bis(4-chlorophenyl)-4-(3-ethynylphenyl)-4-hydroxy-5-methylimidazolidin-2-one]	< 1	–
